This is an account of results in US11382956B2, “Amylin analogues” (Zealand Pharma A/S, priority 2016, dated 2022).

The target of assay [1] is T1, recombinant human calcitonin receptor (hCT-R) (Homo sapiens, UniProt P30988).
T1 construct: host or cells: human astrocytoma cell line 1321N1
T1 sequence (P30988 25-474): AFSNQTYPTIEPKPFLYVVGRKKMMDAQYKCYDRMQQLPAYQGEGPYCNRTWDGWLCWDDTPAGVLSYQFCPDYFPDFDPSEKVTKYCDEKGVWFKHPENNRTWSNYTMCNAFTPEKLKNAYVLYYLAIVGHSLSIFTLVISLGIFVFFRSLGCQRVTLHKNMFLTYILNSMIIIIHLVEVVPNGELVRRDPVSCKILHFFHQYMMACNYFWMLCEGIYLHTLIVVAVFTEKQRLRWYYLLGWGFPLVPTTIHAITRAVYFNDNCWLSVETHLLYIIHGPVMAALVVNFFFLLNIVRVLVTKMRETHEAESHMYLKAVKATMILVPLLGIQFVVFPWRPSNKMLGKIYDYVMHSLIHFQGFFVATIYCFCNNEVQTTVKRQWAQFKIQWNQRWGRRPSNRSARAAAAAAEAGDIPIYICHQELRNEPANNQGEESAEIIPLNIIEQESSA
Briefly: hCT-R cAMP assay (AlphaScreen) in 1321N1 cells. Format: cell-based. The settings on record: cAMP formation, 45 min stimulation. The text has this: (§1) For the assessment of the in vitro activity of test peptides, cell lines expressing recombinant human calcitonin receptor (hCT-R) or recombinant human amylin 3 receptor (hAMYR3) in the background of the human astrocytoma cell line 1321N1 were purchased from DiscoveRx Corporation (Cat. No. 95-016106 and 95-0166C6). The hAMYR3 is a hetero-oligomer of the calcitonin receptor (Isoform 2; Gene ID 799) and RAMPS (Gene ID 10268) that forms when both genes are expressed in the same cell. The hCT-R cell line expresses only the recombinant human calcitonin receptor gene (Isoform 2; Gene ID 799). Upon activation of hCT-R or hAMYR3 by the test peptides the formation of cAMP is induced and was measured using the AlphaScreen® cAMP Assay kit from Perkin-Elmer (Cat. No. 6760635R).
(§2) Briefly, 1321N1 cells expressing hCT-R or hAMYR3 were seeded in 384-well microtiter plates (Falcon Optilux White, Cat.-No. 10448642) at 5,000 cells in […] growth medium per well (AssayComplete 1321N1 Cell Culture Kit, DiscoveRx Corp.), and incubated for 24 h at 37° C., 5% CO2. On the day of analysis growth medium was removed and the cells were stimulated by adding 10 μL of stimulation buffer (10 […], 0.1% BSA) containing increasing concentrations of test peptides, and incubation for 45 min at room temperature. The stimulation was stopped by adding 5.6 μL/well donor bead detection mix (5 mM Hepes pH7.4, 0.5% TWEEN 20, 0.1% BSA, 0.05 mg/mL donor beads, 62.5 nM biotinylated cAMP) and 4.5 μL/well acceptor bead solution (5 mM Hepes pH7.4, 0.5% TWEEN 20, 0.1% BSA, 0.05 mg/mL acceptor beads). After thorough mixing the plates were incubated in the dark for 1 h at room temperature and the cAMP content of the resulting cell lysates was estimated according to the AlphaScreen® cAMP Assay manufacturer's instructions. EC50 values were estimated by computer-aided curve fitting of results of at least 7 different compound concentrations.
A general note: cAMP levels reflect the balance of adenylyl cyclase and phosphodiesterase activity.

Assay [2] concerns the target T2, recombinant human amylin 3 receptor (hAMYR3) (Homo sapiens, UniProt O60896+P30988).
T2 construct: host or cells: human astrocytoma cell line 1321N1
T2 sequence (P30988 25-474): T1 sequence (P30988 25-474)
T2 sequence (O60896 24-148 partner): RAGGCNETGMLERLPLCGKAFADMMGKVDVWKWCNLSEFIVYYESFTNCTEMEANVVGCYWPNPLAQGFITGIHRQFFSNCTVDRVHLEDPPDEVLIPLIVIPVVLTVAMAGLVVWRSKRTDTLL
Briefly: hAMYR3 cAMP assay (AlphaScreen) in 1321N1 cells. It counts as cell-based. The following applies: cAMP formation, 45 min stimulation.
Source text: as §1, §2

Numbered stars: 1 amine (or outer) side, 2 acyl side, 3 side chain; on linkers, the order of the positions; unused ones are H or OH. Bridge positions count the residues as written; N and C are the ends. Square brackets hold non-standard residues; d marks the D form. Peptide text beside a SMILES is read from it. * marks the point of attachment. C20 diacid = O=C(O)CCCCCCCCCCCCCCCCCCC(=O)*; γGlu = O=C(O)[C@H](CCC(=O)[*:2])N[*:1]; Hyp = O=C(O)[C@@H]1C[C@@H](O)CN1; NMeI = CC[C@H](C)[C@H](NC)C(=O)O; Aad = N[C@@H](CCCC(=O)O)C(=O)O; Orn = NCCC[C@H](N)C(=O)O; Sar = CNCC(=O)O

For `CC[C@H](C)[C@@H](C(=O)N[C@@H](CC(C)C)C(=O)N[C@@H](CO)C(=O)N[C@@H](CO)C(=O)N[C@H](C(=O)N[C@@H](CCC(=O)O)C(=O)N[C@H](C(=O)NCC(=O)N[C@@H](CO)C(=O)N[C@@H](CC(N)=O)C(=O)N[C@H](C(=O)N1CCC[C@H]1C(N)=O)[C@@H](C)O)C(C)C)[C@@H](C)O)N(C)C(=O)[C@H](C)NC(=O)CN(C)C(=O)[C@H](Cc1ccccc1)NC(=O)[C@H](CO)NC(=O)[C@H](CO)NC(=O)[C@H](CCCNC(=N)N)NC(=O)[C@H](Cc1c[nH]cn1)NC(=O)[C@H](CC(C)C)NC(=O)[C@H](Cc1ccccc1)NC(=O)[C@H](Cc1c[nH]cn1)NC(=O)[C@H](C)NC(=O)[C@H](CC(C)C)NC(=O)[C@H](CCCNC(=N)N)NC(=O)[C@H](CCC(=O)O)NC(=O)[C@@H](NC(=O)[C@H](C)NC(=O)[C@@H]1CCCNC(=O)C[C@H](NC(=O)[C@H](CCCNC(=N)N)NC(=O)CC[C@H](NC(=O)CCCCCCCCCCCCCCCCCCC(=O)O)C(=O)O)C(=O)NCC(=O)N[C@@H]([C@@H](C)O)C(=O)N[C@@H](C)C(=O)N[C@@H]([C@@H](C)O)C(=O)N1)[C@@H](C)O` [Compound 7, [19CD]-isoGlu-RD()GTAT-Orn()-ATERLAHFLHRSSF-Gly(Me)-A-Ile(Me)-LSSTEVGSNTP-NH2] ({C20 diacid-γGlu}-RDGTAT[Orn]ATERLAHFLHRSSF[Sar]A[NMeI]LSSTEVGSNTP-NH2; lactam 2-7), the concentration for a half-maximal effect (EC50) was determined as 0.289 nM in assay [1] and 0.032 nM in assay [2].
In the case of `CC[C@H](C)[C@@H](C(=O)N1CCC[C@H]1C(=O)N[C@@H](CO)C(=O)N[C@@H](CO)C(=O)N[C@H](C(=O)N[C@@H](CCC(=O)O)C(=O)N[C@H](C(=O)NCC(=O)N[C@@H](CO)C(=O)N[C@@H](CC(N)=O)C(=O)N[C@H](C(=O)N1C[C@H](O)C[C@H]1C(N)=O)[C@@H](C)O)C(C)C)[C@@H](C)O)N(C)C(=O)[C@H](C)NC(=O)CN(C)C(=O)[C@H](Cc1ccccc1)NC(=O)[C@H](CO)NC(=O)[C@H](CO)NC(=O)[C@H](CCCNC(=N)N)NC(=O)[C@H](CCC(N)=O)NC(=O)[C@H](CC(C)C)NC(=O)[C@H](Cc1ccccc1)NC(=O)[C@H](Cc1c[nH]cn1)NC(=O)[C@H](C)NC(=O)[C@H](CC(C)C)NC(=O)[C@H](CCCNC(=N)N)NC(=O)[C@H](CCC(N)=O)NC(=O)[C@@H](NC(=O)[C@H](C)NC(=O)[C@@H]1CCCNC(=O)C[C@H](NC(=O)[C@H](CCCNC(=N)N)NC(=O)CC[C@H](NC(=O)CCCCCCCCCCCCCCCCCCC(=O)O)C(=O)O)C(=O)NCC(=O)N[C@@H]([C@@H](C)O)C(=O)N[C@@H](C)C(=O)N[C@@H]([C@@H](C)O)C(=O)N1)[C@@H](C)O` [Compound 9, [19CD]-isoGlu-RD()GTAT-Orn()-ATQRLAHFLQRSSF-Gly(Me)-A-Ile(Me)-PSSTEVGSNT-Hyp-NH2] ({C20 diacid-γGlu}-RDGTAT[Orn]ATQRLAHFLQRSSF[Sar]A[NMeI]PSSTEVGSNT[Hyp]-NH2; lactam 2-7), the EC50 in assay [1] is 0.027 nM; in assay [2], 0.013 nM.
On to `CC[C@H](C)[C@@H](C(=O)N[C@@H](CC(C)C)C(=O)N[C@@H](CO)C(=O)N[C@@H](CO)C(=O)N[C@H](C(=O)N[C@@H](CCC(=O)O)C(=O)N[C@H](C(=O)NCC(=O)N[C@@H](CO)C(=O)N[C@@H](CC(N)=O)C(=O)N[C@H](C(=O)N1C[C@H](O)C[C@H]1C(N)=O)[C@@H](C)O)C(C)C)[C@@H](C)O)N(C)C(=O)[C@H](C)NC(=O)CN(C)C(=O)[C@H](Cc1ccccc1)NC(=O)[C@H](CO)NC(=O)[C@H](CO)NC(=O)[C@H](CCCNC(=N)N)NC(=O)[C@H](CCC(N)=O)NC(=O)[C@H](CC(C)C)NC(=O)[C@H](Cc1ccccc1)NC(=O)[C@H](Cc1c[nH]cn1)NC(=O)[C@H](C)NC(=O)[C@H](CC(C)C)NC(=O)[C@H](CCCNC(=N)N)NC(=O)[C@H](CCC(=O)O)NC(=O)[C@@H](NC(=O)[C@H](C)NC(=O)[C@@H]1CCCCNC(=O)C[C@H](NC(=O)[C@H](CCCNC(=N)N)NC(=O)CC[C@H](NC(=O)CCCCCCCCCCCCCCCCCCC(=O)O)C(=O)O)C(=O)NCC(=O)N[C@@H](CCC(=O)O)C(=O)N[C@@H](C)C(=O)N[C@@H]([C@@H](C)O)C(=O)N1)[C@@H](C)O` [Compound 12, [19CD]-isoGlu-RD()GEATK()ATERLAHFLQRSSF-Gly(Me)-A-Ile(Me)-LSSTEVGSNT-Hyp-NH2] ({C20 diacid-γGlu}-RDGEATKATERLAHFLQRSSF[Sar]A[NMeI]LSSTEVGSNT[Hyp]-NH2; lactam 2-7), for which the EC50 in assay [1] amounted to 0.893 nM; in assay [2], 0.999 nM.
For `CC[C@H](C)[C@@H](C(=O)N[C@@H](CC(C)C)C(=O)N[C@@H](CO)C(=O)N[C@@H](CO)C(=O)N[C@H](C(=O)N[C@@H](CCC(=O)O)C(=O)N[C@H](C(=O)NCC(=O)N[C@@H](CO)C(=O)N[C@@H](CC(N)=O)C(=O)N[C@H](C(=O)N1C[C@H](O)C[C@H]1C(N)=O)[C@@H](C)O)C(C)C)[C@@H](C)O)N(C)C(=O)[C@H](C)NC(=O)CN(C)C(=O)[C@H](Cc1ccccc1)NC(=O)[C@H](CO)NC(=O)[C@H](CO)NC(=O)[C@H](CCCNC(=N)N)NC(=O)[C@H](CCC(N)=O)NC(=O)[C@H](CC(C)C)NC(=O)[C@H](Cc1ccccc1)NC(=O)[C@H](Cc1c[nH]cn1)NC(=O)[C@H](C)NC(=O)[C@H](CC(C)C)NC(=O)[C@H](CCCNC(=N)N)NC(=O)[C@H](CCC(=O)O)NC(=O)[C@@H](NC(=O)[C@H](C)NC(=O)[C@@H]1CCCCNC(=O)C[C@H](NC(=O)[C@H](CCCNC(=N)N)NC(=O)CC[C@H](NC(=O)CCCCCCCCCCCCCCCCCCC(=O)O)C(=O)O)C(=O)NCC(=O)N[C@@H]([C@@H](C)O)C(=O)N[C@@H](CC(C)C)C(=O)N[C@@H]([C@@H](C)O)C(=O)N1)[C@@H](C)O` [Compound 13, [19CD]-isoGlu-RD()GTLTK()ATERLAHFLQRSSF-Gly(Me)-A-Ile(Me)-LSSTEVGSNT-Hyp-NH2] ({C20 diacid-γGlu}-RDGTLTKATERLAHFLQRSSF[Sar]A[NMeI]LSSTEVGSNT[Hyp]-NH2; lactam 2-7), in that order: 1.41 nM and 0.456 nM.
Turning to `CC[C@H](C)[C@@H](C(=O)N[C@@H](CC(C)C)C(=O)N[C@@H](CO)C(=O)N[C@@H](CO)C(=O)N[C@H](C(=O)N[C@@H](CCC(=O)O)C(=O)N[C@H](C(=O)NCC(=O)N[C@@H](CO)C(=O)N[C@@H](CO)C(=O)N[C@H](C(=O)N1C[C@H](O)C[C@H]1C(N)=O)[C@@H](C)O)C(C)C)[C@@H](C)O)N(C)C(=O)[C@H](C)NC(=O)CN(C)C(=O)[C@H](Cc1ccccc1)NC(=O)[C@H](CO)NC(=O)[C@H](CO)NC(=O)[C@H](CCCNC(=N)N)NC(=O)[C@@H](NC(=O)[C@H](CC(C)C)NC(=O)[C@H](Cc1ccccc1)NC(=O)[C@H](CCCC(=O)O)NC(=O)[C@H](C)NC(=O)[C@H](CC(C)C)NC(=O)[C@H](CCCNC(=N)N)NC(=O)[C@H](CCC(=O)O)NC(=O)[C@@H](NC(=O)[C@H](C)NC(=O)[C@@H]1CCCNC(=O)C[C@H](NC(=O)[C@H](CCCNC(=N)N)NC(=O)CC[C@H](NC(=O)CCCCCCCCCCCCCCCCCCC(=O)O)C(=O)O)C(=O)NCC(=O)N[C@@H]([C@@H](C)O)C(=O)N[C@@H](C)C(=O)N[C@@H]([C@@H](C)O)C(=O)N1)[C@@H](C)O)[C@@H](C)O` [Compound 22, [19CD]-isoGlu-RD()GTAT-Orn()-ATERLA-Aad-FLTRSSF-Gly(Me)-A-Ile(Me)-LSSTEVGSST-Hyp-NH2] ({C20 diacid-γGlu}-RDGTAT[Orn]ATERLA[Aad]FLTRSSF[Sar]A[NMeI]LSSTEVGSST[Hyp]-NH2; lactam 2-7), the figures for the EC50 in assay [1] and in assay [2] were 0.474 nM and 0.051 nM, respectively.

For orientation: EC50 means the concentration at which the effect is half-maximal.
